From patent US6624310B1, “Epothilone minor constituents” (Gesellschaft fuer Biotechnologische Forschung, mbH (GBF), priority 1998, dated 2003)
Values after ≈ are worked out from the molar mass of the structure shown. Like-named read-outs stand apart in the source and are kept apart here.

System: mouse fibroblasts (L929)
Test: Activity against mouse fibroblasts (L929)
Type: cell-based
Conditions: for IC50: read-out: Activity against mouse fibroblasts (L929, IC 50/ng/ml)

| Molecule | Activity against mouse fibroblasts (L929, IC 50/ng/ml) (L929 mouse fibroblasts) | also measured |
| --- | --- | --- |
| Cc1nc(/C=C(\CO)[C@@H]2C/C=C\CCC[C@H](C)[C@H](O)[C@@H](C)C(=O)C(C)(C)[C@@H](O)CC(=O)O2)cs1 [Compound 27, Epothilone C9] | (27) 200 ng/ml |  |
| C/C1=C/C[C@@H](/C(C)=C/c2csc(C)n2)OC(=O)C[C@H](O)[C@H](C)C(=O)[C@H](C)[C@@H](O)[C@@H](C)CCC1 [Compound 19, Epothilone D2] | (19) 12 ng/ml |  |
| C/C(=C\c1coc(C)n1)[C@@H]1C/C=C\CCC[C@H](C)[C@H](O)[C@@H](C)C(=O)C(C)(C)[C@@H](O)CC(=O)O1 [Compound 12, Epothilone H1] | (12) 120 ng/ml |  |
| C/C(=C\c1csc(CO)n1)[C@@H]1C[C@@H]2O[C@@H]2CCC[C@H](C)[C@H](O)[C@@H](C)C(=O)C(C)(C)[C@@H](O)CC(=O)O1 [Compound 3, Epothilone E, reference compound] | (3) 10 ng/ml |  |
| C/C(=C\c1csc(C)n1)[C@@H]1C[C@@H]2O[C@@H]2CCC[C@H](C)[C@H](O)[C@@H](C)C(=O)C(C)(C)[C@@H](O)CC(=O)O1 [Compound 1, Epothilone A, reference compound] | (1) 4 ng/ml |  |
| C/C(=C\c1csc(C)n1)[C@@H](O)C/C=C\CCC[C@H](C)[C@H](O)[C@@H](C)C(=O)C(C)C [Compound 37] |  | IC50 (L929 mouse fibroblasts): 50 ng/mL (≈ 0.123 µM) |
| C/C(=C\c1csc(C)n1)[C@@H]1C/C=C\CCC[C@H](C)[C@H](O)[C@@H](C)C(=O)C(C)(C)[C@@H](O)CC(=O)O1 [Compound 14, Epothilone C, reference compound] | (14) 50-100 ng/ml |  |
| C/C1=C/C[C@@H](/C(C)=C/c2csc(C)n2)OC(=O)C[C@H](O)[C@@H](C)C(=O)[C@H](C)[C@@H](O)[C@@H](C)CCC1 [Compound 17, Epothilone D1] | (17) 20 ng/ml |  |
| Cc1nc(/C=C/[C@@H]2C/C=C\CCC[C@H](C)[C@H](O)[C@@H](C)C(=O)C(C)(C)[C@@H](O)CC(=O)O2)cs1 [Compound 26, Epothilone C8] | (26) 250 ng/ml |  |
| C/C(=C\c1csc(C)n1)[C@@H]1C/C=C\CCCC[C@H](O)[C@@H](C)C(=O)C(C)(C)[C@@H](O)CC(=O)O1 [Compound 21, Epothilone C4] | (21) 800 ng/ml |  |
| C/C(=C\c1csc(C)n1)[C@@H]1C/C=C\C=C\C[C@H](C)[C@H](O)[C@@H](C)C(=O)C(C)(C)[C@@H](O)CC(=O)O1 [Compound 24, Epothilone C6] |  | IC50 (L929 mouse fibroblasts): 120 ng/mL (≈ 0.252 µM) |
| C/C(=C\c1csc(C)n1)[C@@H]1C[C@@H]2O[C@@H]2CCC[C@H](C)[C@H](O)[C@@H](C)C(=O)[C@H](C)[C@@H](O)CC(=O)O1 [Compound 5, Epothilone A1] | (5) 20 ng/ml |  |
| C/C(=C\c1csc(C)n1)[C@@H]1C/C=C\CC/C=C(\C)[C@H](O)[C@@H](C)C(=O)C(C)(C)[C@@H](O)CC(=O)O1 [Compound 22, Epothilone C5] | (22) 1500 ng/ml |  |
| C/C(=C\c1csc(C)n1)[C@@H]1C[C@@H]2O[C@@H]2CCC[C@H](C)[C@H](O)[C@@H](C)C(=O)[C@@H](C)[C@@H](O)CC(=O)O1 [Compound 6, Epothilone A2] | (6) 7 ng/ml |  |
| C/C(=C\c1csc(CO)n1)[C@@H]1C[C@@H]2O[C@]2(C)CCC[C@H](C)[C@H](O)[C@@H](C)C(=O)C(C)(C)[C@@H](O)CC(=O)O1 [Compound 4, Epothilone F, reference compound] |  | Activity against mouse fibroblasts (L929, IC 50/ng/ml): (4) 1.5 ng/ml |
| C/C(=C\c1csc(C)n1)[C@@H]1C/C=C/CCC[C@H](C)[C@H](O)[C@@H](C)C(=O)[C@H](C)[C@@H](O)CC(=O)O1 (relative stereo) [Compound 29, trans-Epothilone C2] | (29) 80 ng/ml |  |
| C/C1=C/C[C@@H](/C(C)=C/c2csc(C)n2)OC(=O)C[C@H](O)C(C)(C)C(=O)[C@H](C)[C@@H](O)[C@@H](C)CCC1 [Compound 15, Epothilone D, reference compound] | (15) 20 ng/ml |  |
| CCc1nc(/C=C(\C)[C@@H]2C[C@@H]3O[C@]3(C)CCC[C@H](C)[C@H](O)[C@@H](C)C(=O)C(C)(C)[C@@H](O)CC(=O)O2)cs1 [Compound 9, Epothilone B10] |  | IC50 (L929 mouse fibroblasts): 1.5 ng/mL (≈ 0.00288 µM) |
| C/C1=C/C[C@@H](/C(C)=C/c2csc(C)n2)OC(=O)C[C@H](O)C(C)C(=O)C(C)CCC1 (stereo partly shown) [Compound 36, Epothilone K] |  | IC50 (L929 mouse fibroblasts): 180 ng/mL (≈ 0.429 µM) |
| Cc1nc(/C=C(\CO)[C@@H]2C[C@@H]3O[C@@H]3CCC[C@H](C)[C@H](O)[C@@H](C)C(=O)C(C)(C)[C@@H](O)CC(=O)O2)cs1 [Compound 8, Epothilone A9] | (8) 100 ng/ml |  |
| C/C(=C\c1csc(C)n1)[C@@H]1C/C=C/CCC[C@H](C)[C@H](O)[C@@H](C)C(=O)[C@@H](C)[C@@H](O)CC(=O)O1 (relative stereo) [Compound 28, trans-Epothilone C1] | (28) 400 ng/ml |  |
| C/C(=C\c1csc(C)n1)[C@@H]1C/C=C\CCC[C@H](C)[C@H](O)[C@@H](C)C(=O)[C@H](C)[C@@H](O)CC(=O)O1 [Compound 16, Epothilone C1] | (16) 200 ng/ml |  |
| C/C(=C\c1csc(C)n1)[C@@H]1C/C=C\CCC[C@H](C)[C@H](O)CC(=O)C(C)(C)[C@@H](O)CC(=O)O1 [Compound 20, Epothilone C3] | (20) 1500 ng/ml |  |
| Cc1nc(/C=C/[C@@H]2C[C@@H]3O[C@@H]3CCC[C@H](C)[C@H](O)[C@@H](C)C(=O)C(C)(C)[C@@H](O)CC(=O)O2)cs1 [Compound 7, Epothilone A8] | (7) 20 ng/ml |  |
| C/C(=C\c1csc(C)n1)[C@@H]1C[C@@H]2O[C@]2(C)CCC[C@H](C)[C@H](O)[C@@H](C)C(=O)C(C)(C)[C@@H](O)CC(=O)O1 [Compound 2, Epothilone B, reference compound] | (2) 1-2 ng/ml |  |
| C/C(=C\c1coc(C)n1)[C@@H]1C[C@@H]2O[C@]2(C)CCC[C@H](C)[C@H](O)[C@@H](C)C(=O)C(C)(C)[C@@H](O)CC(=O)O1 [Compound 11, Epothilone G2] | (11) 1 ng/ml |  |
| Epothilone D5 [Compound 23] | (23) 200 ng/ml |  |
| C/C1=C/C[C@@H](/C(C)=C/c2coc(C)n2)OC(=O)C[C@H](O)C(C)(C)C(=O)[C@H](C)[C@@H](O)[C@@H](C)CCC1 [Compound 13, Epothilone H2] | (13) 11 ng/ml |  |
